Measured values as given in the supplement of paper PMC10307832.

Tests used:
Assay in all cases: relative viability (nuclei count vs DMSO), 5 days (fraction); higher = more cells survive
[1] = compound: CC1=C(C(=O)N2C=CSC2=N1)CCN3CCC(=C(C4=CC=CC=C4)C5=CC=C(C=C5)F)CC3 + COc1cccc2cc(-c3nc([C@H]4CC[C@H](C(=O)O)CC4)n4ncnc(N)c34)[nH]c12 [OSI-027] (partner 0.5 µM)
Outline: (§1)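 After 5 days of treatment, lung cancer cells in 1536-well plates were fixed and stained in a single step (final 0.05% Triton X-100, 1% formaldehyde, 1 ug/ml Hoechst) and their nuclei counted on 4× images. Treatment had been applied by pin tool the day after seeding as one drug alone or as a fixed anchor-drug dose with five library-drug doses (not always all listed) in √10 steps. Relative viability is the nuclei count of treated wells divided by that of vehicle wells, and values are medians of duplicate plates.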

[2] = compound: CC1=C(C(=O)N2C=CSC2=N1)CCN3CCC(=C(C4=CC=CC=C4)C5=CC=C(C=C5)F)CC3 + C[C@]1(O)C[C@@H](c2nc(-c3ccc4ccc(-c5ccccc5)nc4c3)c3c(N)nccn32)C1 [Linsitinib] (partner 1 µM)
Outline: as §1

[3] = compound: CC1=C(C(=O)N2C=CSC2=N1)CCN3CCC(=C(C4=CC=CC=C4)C5=CC=C(C=C5)F)CC3 + C[C@@H](Oc1cc(-c2cnn(C3CCNCC3)c2)cnc1N)c1c(Cl)ccc(F)c1Cl [Crizotinib] (partner 1 µM)
Outline: as §1

[4] = compound: CC1=C(C(=O)N2C=CSC2=N1)CCN3CCC(=C(C4=CC=CC=C4)C5=CC=C(C=C5)F)CC3 + Cc1cc(Nc2cc(N3CCN(C)CC3)nc(Sc3ccc(NC(=O)C4CC4)cc3)n2)n[nH]1 [Tozasertib] (partner 0.1 µM)
Outline: as §1

| Cell Line | relative viability ([1]; first compound 0.08 µM) | relative viability ([1]; first compound 0.253 µM) | relative viability ([1]; first compound 0.8 µM) | relative viability ([1]; first compound 2.53 µM) | relative viability ([1]; first compound 8 µM) | relative viability ([2]; first compound 0.08 µM) | relative viability ([2]; first compound 0.253 µM) | relative viability ([2]; first compound 0.8 µM) | relative viability ([2]; first compound 2.53 µM) | relative viability ([2]; first compound 8 µM) | relative viability ([3]; first compound 0.08 µM) | relative viability ([3]; first compound 0.253 µM) | relative viability ([3]; first compound 0.8 µM) | relative viability ([3]; first compound 2.53 µM) | relative viability ([3]; first compound 8 µM) | relative viability ([4]; first compound 0.08 µM) | relative viability ([4]; first compound 0.253 µM) | relative viability ([4]; first compound 0.8 µM) | relative viability ([4]; first compound 2.53 µM) | relative viability ([4]; first compound 8 µM) |
| --- | --- | --- | --- | --- | --- | --- | --- | --- | --- | --- | --- | --- | --- | --- | --- | --- | --- | --- | --- | --- |
| LXF-289 | 0.784 | 0.79 | 0.779 | 0.884 | 0.55 | 0.948 | 1.1 | 0.989 | 0.96 | 0.83 | 0.911 | 0.93 | 0.891 | 0.797 | 0.773 | 0.219 | 0.265 | 0.16 | 0.193 | 0.155 |
| NCI-H1915 | 0.758 | 0.599 | 0.589 | 0.642 | 0.464 | 1.16 | 1.12 | 1.07 | 1.18 | 0.832 | 0.953 | 1.01 | 0.957 | 0.862 | 0.521 | 0.438 | 0.442 | 0.444 | 0.432 | 0.318 |
| NCI-H1993 | 0.611 | 0.498 | 0.546 | 0.58 | 0.626 | 0.763 |  | 0.67 | 0.713 | 0.89 | 0.708 |  | 0.796 | 0.906 | 0.832 | 0.627 | 0.502 | 0.557 | 0.64 | 0.495 |
| HARA | 0.379 | 0.577 | 0.534 | 0.454 | 0.275 | 0.956 | 1.09 | 1.08 | 0.917 | 0.54 | 1 | 1.21 | 1.25 | 1.04 | 0.791 | 0.111 | 0.117 | 0.104 | 0.111 | 0.114 |
| NCI-H23 | 0.572 | 0.517 | 0.482 | 0.738 | 0.399 | 0.525 | 0.762 | 0.616 | 0.676 | 0.339 | 0.467 | 0.505 | 0.454 | 0.372 | 0.404 | 0.365 | 0.386 | 0.214 | 0.307 | 0.316 |
| BEN | 0.294 | 0.311 | 0.283 | 0.318 | 0.278 | 0.781 | 0.967 | 1.07 | 0.847 | 0.79 | 0.725 | 0.818 | 0.963 | 0.963 | 0.69 | 0.48 | 0.493 | 0.493 | 0.529 | 0.551 |
| COR-L23 | 0.778 | 0.667 | 0.702 | 0.778 | 0.619 | 0.84 | 0.915 | 1.04 | 1.13 | 0.505 | 0.503 | 0.758 | 0.608 | 0.649 | 0.419 | 0.18 | 0.164 | 0.169 | 0.214 | 0.184 |
| ABC-1 | 0.547 | 0.394 | 0.434 | 0.372 | 0.266 | 0.655 | 0.894 | 0.723 | 1.02 | 0.504 | 1.13 | 1.42 | 0.931 | 0.722 | 0.748 | 0.15 | 0.181 | 0.165 | 0.206 | 0.174 |
